According to patent US20070179110A1, “EXPRESSION OF IMMUNOGENIC SUBSTANCES” (Mayo Foundation for Medical Education and Research, priority 1997, published 2007):

Legend:
[1] = tested on: chTCR gene expression; assay: Regulation of surface chTCR expression by tetracyclines in JLAV12S (pLAV12-transfected Jurkat) cells, FACS; assay type: cell-based, human; conditions: for surface chTCRs down-regulated: 1 μg/ml; for surface chTCRs down-regulated / concentration for maximal repression: 48 hours
Procedure: (§1) The Jurkat T cell line (clone E6-l) was maintained in RPMI 1640 supplemented with 10% foetal calf serum (FCS), 2 mM L-glutamine, 100 U/ml penicillin, 100 μg/ml streptomycin and 25 mM HEPES buffer (all from GIBCO-BRL, Gaithersburg, Md.), referred to as complete medium (CM). To generate stable cell lines Jurkat cells were transfected with linearized plasmid DNA (10 μg) by electroporation, at […] and 960 μF, as described previously (13). Transfectants were selected in CM supplemented with 0.4 mg/ml of hygromycin B (Calbiochem, San Diego, Calif.). Stable cell lines were established after 3-4 weeks and analyzed by FACS for expression of the chTCR. To select a population of chTCR ζ expressing cells, stable Jurkat cells transfected with the linearized pLAV12 or pCEP4.aNIP.TCR ζ derived plasmid fragments were FACS sorted (see below). The resultant populations were cloned twice by limiting dilution and screened for protein expression by flow cytometry.
(§2) Expression of cell surface proteins was performed by standard direct immunofluorescence as described (14) using saturating amounts of FITC-conjugated antibodies. Dead cells were excluded from analysis using a combination of propidium iodide and forward light scatter. Appropriate FITC isotype-matched irrelevant Abs were used in all experiments. The samples were analysed with a FACScan® (Becton Dickinson, Mountain View, Calif.). A minimum of 20,000 cells was analysed for each sample. Subsequent re-analysis of data was performed using the CELLQuest software (version 1.2) (Becton Dickinson). Additionally, cells stained with FITC-conjugated goat antisera to mouse λ light chain were sorted under sterile conditions on a cell sorter (FACScalibur, Becton Dickinson).
To study the time-course of inactivation of gene expression, JLAV12S cells were analysed at different times after addition of the antibiotics at 1 μg/ml (FIG. 2B).
(§3) A dose-response curve of gene repression was determined using different concentrations of Tet or Dox. After 48 hours of treatment, the cells were harvested and the expression of the chTCR was studied by FACS analysis.
(§4) Stably transfected uncloned (JLAV12S, left hand column) and cloned (1F5, middle column; and 2E11, right hand column) Jurkat cell populations were cultured for 48 hours in the presence of different concentrations (0 ng/ml top row, 0.1 ng/ml second row, 1 ng/ml third row, and 10 ng/ml bottom row) of Tet (broken line) or Dox (solid line) and the surface expression of scFv-TCR ζ molecules was examined. Negative controls (FITC-conjugated goat antisera to mouse IgG) are overlaid (filled curve). The fluorescence channel number is plotted along the x axis, and the y axis represents the relative cell number.

[2] = tested on: chTCR gene expression; assay: Regulation of surface chTCR expression in cloned pLAV12 transfectants (1E5/1F5 and 2E11), FACS; assay type: cell-based, human
Procedure: as §1, §2
The selected population of pLAV12 transfectants (JLAV12S) was then cloned by limiting dilution and two subclones expressing the chTCR at low (2E11) and intermediate (IF5) levels (FIG. 3) were selected for further study.
as §3, §4

[3] = tested on: Jurkat cells; assay: Anti-CD3ε induced IL-2 secretion of Jurkat cells (IL-2 release assay); assay type: cell-based; conditions: Homo sapiens, 1 μg/ml, not shown
Procedure: (§5) Subsequently the cells were washed, counted and stimulated (10^5/well) in triplicate with plastic-immobilised NIP10-BSA conjugates (iNIP10-BSA) or plastic immobilised anti-CD3E mAb (ianti-CD3) in fresh CM alone or in the presence of the drugs (12). The plates were incubated at 37° C. in 5% CO2. After 20 hours supernatants were harvested and assayed for IL-2 activity using an ELISA kit (Genzyme Diagnostics, Cambridge, Mass.).

[4] = tested on: JN3S cells; assay: IL-2 production of JN3S cells stimulated with iNIP10-BSA; assay type: cell-based, human; conditions: doxycycline at a concentration of less than 1 μg/ml
Procedure: as §5
The inventors next determined whether tetracycline-mediated suppression of the chTCR could induce a reversible state of antigen unresponsiveness in the transfected Jurkat cells. JLAV12S and JN3S cells were preincubated for 48 hours in increasing concentrations of Dox and Tet and then stimulated with immobilized NIP-BSA, following which their IL-2 production was measured.
FIGS. 5A and 5B are bar charts showing IL-2 production (in pg/ml) by transfected JLAV12S (5A) or JN3S (5B) cells stimulated with iNIP10-BSA in the absence or presence of Tet or Dox. Cells were preincubated for a 48 hours period in the absence or presence of the drugs (at the indicated concentration in ng/ml), washed and stimulated (10^5/well) with plastic immobilised NIP10-BSA conjugates (50 μg/ml) in fresh CM alone (solid bar) or in the presence of Tet (shaded bars) or Dox (open bars) at the indicated concentrations. One of two similar experiments is shown.

[5] = tested on: JLAV12S and JN3S cells; conditions: 1 μg/ml, 48 hours; data not shown

SMILES | surface chTCRs down-regulated ([1]; JLAV12S cells) [%] | concentration for maximal repression ([1]; JLAV12S cells) | level of chTCR as % of its maximal expression ([2]; 1E5 clone) | level of chTCR as % of its maximal expression ([2]; 2E11 clone) [%] | concentration at which expression of chTCRs was maximally repressed ([2]; clonal populations 1E5 and 2E11, 48 hours) [pg/mL] | inhibition at 1 µg/mL [3] [%] | effect on IL-2 production upon stimulation with iNIP10-BSA conjugates [4] | changes in cell viability [5] | concentration for maximal repression ([1]; all the analysed cell lines) | concentration of maximum repression ([1]; in our system) [ng/mL]
C[C@H]1c2cccc(O)c2C(=O)C2=C(O)[C@]3(O)C(=O)C(C(N)=O)=C(O)[C@@H](N(C)C)[C@@H]3[C@@H](O)[C@@H]21 [doxycycline] | 90 | greater than or equal to 1 ng/ml | about 10% | ~20 | 100 | 25 | no inhibitory effect | No changes | – | –
CN(C)[C@@H]1C(O)=C(C(N)=O)C(=O)[C@@]2(O)C(O)=C3C(=O)c4c(O)cccc4[C@@](C)(O)[C@H]3C[C@@H]12 [tetracycline] | 90 | – | about 10% | ~20 | – | – | no inhibitory effect | – | greater than or equal to 10 ng/ml | 10
